This note sets out measurements from US20060115816A1, “Splice variant cannabinoid receptor (cb1b)” (priority 2002, published 2006).

One assay deals with T1, hCB2 (Homo sapiens, UniProt P34972).
T1 construct: expressed in transfected cells
Briefly: GTPγ[35S] binding assay, agonist properties on hCB2. The class given is biochemical. In general terms: GTPγS resists hydrolysis and so accumulates on activated G proteins.

The next assay concerns the target T2, hCB1a (Homo sapiens, UniProt P21554).
T2 construct: expressed in transfected cells
Briefly: biochemical. The class given is biochemical.

For assay [1], the target named is T3, hCB1b (Homo sapiens, UniProt P21554).
T3 construct: expressed in transfected cells
Briefly: biochemical. The class given is biochemical.

Assay [2] addresses T3, hCB1b. Briefly: FLIPR intracellular calcium mobilization assay (Fluo-3), HEK-293S cells expressing human CB1b receptor and Gα16. The class given is cell-based. Here is the method:
In order to assess the functionality of the human CB1b receptor variant, a functional assay was performed with FLIPR (Fluorescent Imaging Plate Reader, Molecular Devices) using the fluorescent calcium indicator Fluo-3 (Molecular Probes) on a 96 well platform. […] On the day of the experiment, the cells were initially washed once with Hank's buffer (pH7.4) containing 20 mM Hepes and 0.1% BSA (HBSS buffer) and subsequently loaded with fluorescent solution (HBSS buffer, 4 μM Fluor-3 and 0.04% pluronic acid). The cells were incubated at 37° C. for 1 hour in a humidified chamber. Following the incubation step, cells were washed five times with HBSS buffer. […] A range of other natural and synthetic cannabinoid ligands were also tested.

For assay [3], the target named is T4, un-spliced human CB 1 receptor (Homo sapiens, UniProt P21554).
T4 construct: expressed in transfected cells
Briefly: FLIPR intracellular calcium mobilization assay (Fluo-3), HEK-293S cells expressing un-spliced hCB1 receptor and Gα16. The class given is cell-based. Background: Calcium flux is commonly read through the fluorescence of an indicator in the cells.

The next assay deals with T5, hCB1 (Homo sapiens, UniProt P21554).
T5 construct: expressed in transfected cells
The experiment in a line: biochemical. The class given is biochemical.

The mark [4] stands for this setting: agonist, GTPγ[35S] binding assay, read-out: EC50 hCB1a.
The mark [5] stands for this setting: agonist, GTPγ[35S] binding assay, read-out: EC50 hCB1b.
Setting [6] is: agonist, GTPγ[35S] binding assay, read-out: EC50 hCB1.

The structures appear in SMILES notation. Read-outs that look alike come from different tables or passages of the source.

What is called EC50 is the concentration giving half of the maximal effect.

T3 sequence (P21554 1-439 isoform P21554-3): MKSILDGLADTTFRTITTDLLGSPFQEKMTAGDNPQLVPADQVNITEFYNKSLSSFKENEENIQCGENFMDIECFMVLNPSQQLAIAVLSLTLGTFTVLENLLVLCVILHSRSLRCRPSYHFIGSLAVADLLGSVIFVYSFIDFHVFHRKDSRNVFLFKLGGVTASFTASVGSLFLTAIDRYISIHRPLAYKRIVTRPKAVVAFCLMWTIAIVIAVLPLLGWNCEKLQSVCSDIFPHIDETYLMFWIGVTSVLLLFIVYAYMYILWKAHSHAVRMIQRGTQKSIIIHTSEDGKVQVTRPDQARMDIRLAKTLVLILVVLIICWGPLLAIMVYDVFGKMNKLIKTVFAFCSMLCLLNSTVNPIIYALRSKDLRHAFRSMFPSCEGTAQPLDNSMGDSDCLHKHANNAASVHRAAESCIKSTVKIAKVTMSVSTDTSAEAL
T1 sequence (P34972 whole entry): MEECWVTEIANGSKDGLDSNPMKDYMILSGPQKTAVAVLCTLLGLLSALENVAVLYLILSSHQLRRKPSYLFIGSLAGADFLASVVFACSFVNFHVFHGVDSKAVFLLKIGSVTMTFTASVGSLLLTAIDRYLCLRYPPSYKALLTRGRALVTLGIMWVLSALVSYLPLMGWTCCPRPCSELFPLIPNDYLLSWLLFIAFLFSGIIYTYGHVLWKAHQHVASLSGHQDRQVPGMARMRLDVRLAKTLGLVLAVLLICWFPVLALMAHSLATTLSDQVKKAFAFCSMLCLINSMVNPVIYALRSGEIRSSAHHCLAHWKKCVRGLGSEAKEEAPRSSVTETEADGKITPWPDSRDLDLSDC
T5 sequence (P21554 whole entry): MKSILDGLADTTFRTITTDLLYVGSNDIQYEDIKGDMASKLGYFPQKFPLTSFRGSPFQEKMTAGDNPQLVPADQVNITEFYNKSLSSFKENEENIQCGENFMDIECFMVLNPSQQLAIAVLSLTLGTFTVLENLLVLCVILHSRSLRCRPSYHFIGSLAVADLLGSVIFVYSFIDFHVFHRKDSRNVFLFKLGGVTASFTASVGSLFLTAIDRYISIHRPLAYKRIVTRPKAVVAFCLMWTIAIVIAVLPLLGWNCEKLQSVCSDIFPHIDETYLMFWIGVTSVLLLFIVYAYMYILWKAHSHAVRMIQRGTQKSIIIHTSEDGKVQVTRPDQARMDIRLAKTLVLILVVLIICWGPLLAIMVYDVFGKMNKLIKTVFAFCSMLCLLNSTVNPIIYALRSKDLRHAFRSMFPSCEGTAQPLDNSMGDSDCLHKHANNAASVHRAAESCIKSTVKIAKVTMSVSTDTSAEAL
T2 sequence (P21554 1-411 isoform P21554-2): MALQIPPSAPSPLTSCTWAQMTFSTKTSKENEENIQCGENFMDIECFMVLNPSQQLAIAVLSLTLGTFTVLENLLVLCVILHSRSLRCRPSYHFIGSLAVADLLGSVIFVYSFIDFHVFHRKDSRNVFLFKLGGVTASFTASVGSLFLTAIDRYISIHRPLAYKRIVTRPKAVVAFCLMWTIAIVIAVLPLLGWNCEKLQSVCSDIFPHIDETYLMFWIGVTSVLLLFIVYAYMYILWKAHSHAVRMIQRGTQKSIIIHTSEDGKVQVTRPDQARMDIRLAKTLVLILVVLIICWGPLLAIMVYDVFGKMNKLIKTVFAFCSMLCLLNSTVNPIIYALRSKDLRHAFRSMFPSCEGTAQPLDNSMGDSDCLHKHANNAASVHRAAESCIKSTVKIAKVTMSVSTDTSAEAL
T4 sequence (P21554 whole entry, canonical isoform): as the sequence (P21554 whole entry) above

As to `CCCCC/C=C\C/C=C\C/C=C\C/C=C\CCCC(=O)OC(CO)CO` [2-arachodonylglycerol], the EC50 on hCB2 worked out at 1690 nM.

Consider `CCCCCCC(C)(C)c1cc(O)c2c(c1)OC(C)(C)[C@@H]1CC=C(CO)C[C@@H]21` [Hu210], for which the EC50 at hCB1a was found to be 0.2 nM; on hCB1b [1] it was 0.15 nM; at hCB1b [2], 0.15 nM; in assay [3], 0.06 nM; at hCB1, 0.06 nM.

For `CCCC(C)(C)c1ccc2c(c1)OC(C)(C)[C@@H]1CC=C(C)C[C@@H]21` [JWH133], the EC50 at hCB2 was 1.8 nM; at hCB1a (setting [4]), over 1000 nM; on hCB1b [1] (setting [5]), over 1000 nM; at hCB1 (setting [6]) it was over 1000 nM.

As to `CCCCC/C=C\C/C=C\C/C=C\C/C=C\CCCCOC(CO)CO` [Noladin Ether], the EC50 is over 1000 nM on hCB2, over 1000 nM at hCB1a (read-out: EC50 hCB1a), over 1000 nM at hCB1b [1] (read-out: EC50 hCB1b) and 5.1 nM at hCB1 (read-out: EC50 hCB1).

For the compound `CCCCCCCCCCCCCCCC(=O)NCCO` [Palmitoylethanolamine], the concentration giving a half-maximal response (EC50) at hCB2 is 349 nM; at hCB1a (setting [4]) it was over 1000 nM; at hCB1b [1] (setting [5]), over 1000 nM; at hCB1 (setting [6]) it was over 1000 nM.

On to `CCCCC/C=C\C/C=C\C/C=C\C/C=C\CCCC(=O)OCCN` [Virodhamine], for which the EC50 at hCB2 was 1310 nM; on hCB1a (setting [4]), over 1000 nM; on hCB1b [1] (setting [5]) it was over 1000 nM; on hCB1 (setting [6]), 934 nM.
